Measured values taken from PMC10861299, “A Systematic Survey of Reversibly Covalent Dipeptidyl Inhibitors of the SARS-CoV-2 Main Protease” (Journal of Medicinal Chemistry, 2023).
Where two headings read alike, the source gives them in different places.

Assays:
[1] = In vitro metabolic stability in human liver microsomes; conditions: pH 7.4
[2] = molecular target: M^Pro-eGFP fusion protein in 293T cells (Severe acute respiratory syndrome coronavirus 2, UniProt P0DTD1); assay: cell-based; design: species or system SARS-CoV-2
[3] = molecular target: SARS-CoV-2 main protease (M^Pro) (Severe acute respiratory syndrome coronavirus 2, UniProt P0DTD1); assay: In vitro M^Pro enzymatic inhibition with fluorogenic substrate Sub3; format: biochemical; conditions: 20 nM M^Pro, 10 μM Sub3, 30 min preincubation; read-out: Enzymatic IC50
Cytotoxicity, MTT assay = format: cell-based; conditions: human, HEK293T cells, 293T cells
Protocol: Because of their high antiviral potency, MPI60 and MPI61 were advanced to characterizations of cytotoxicity and in vitro metabolic stability. For the cytotoxicity characterization, we used 293T cells and the MTT assay.[42] […] These CC50 values are similar to that of nirmatrelvir and lead to high calculated selectivity indices (CC50/antiviral EC50) for both compounds. The in vitro metabolic stability analysis for MPI60 and MPI61 was conducted using human liver microsomes.
HEK293T cells were seeded in 96-well plates and incubated at 37 °C and 5% CO2 for 24 h. The cells were then treated with different concentrations (200, 100, 50, 25, 12.5, 6.25, 3.125, 1.5625, 0.78125, and 0 μM) of the tested compound in triplicate for 48 h. Cell viability was assessed by the MTT assay to determine CC50. For the MTT assay, 20 μL MTT (5 mg/mL) was added to each well and incubated with cells for 4 h. After that, the supernatant was removed, and 200 μL DMSO was added per well. The absorbance was recorded at 490 nm. The CC50 value was determined by plotting the normalized cell viability (%) against the compound concentration.
Figure S5. Cytotoxicity curves of MPI60 and MPI61 in 293T cells tested by the MTT assay.
(1 picture or pasted object on this page, not shown here)

COVID-19 patients = test system: COVID-19 patients; design: method as in PMID 34914868; conditions: patients with mild and moderate COVID-19; cited from earlier work

SMILES	CLint scaled at 5 μM [1]	half-life at 5 μM [1]	EC50 ([2]; read-out: Cellular EC50)	EC50 ([2]; read-out: cellular EC50)	IC50 [3]	CC50 at 48 h (Cytotoxicity, MTT assay)	reduced the risk of hospitalization and death compared to placebo (COVID-19 patients)
O=C[C@H](C[C@@H]1CCNC1=O)NC(=O)C1CC2(CCCCC2)CN1C(=O)OCc1ccccc1 (stereo partly drawn) [MPI61, Benzyl 3-(((S)-1-Oxo-3-((S)-2-oxopyrrolidin-3-yl)propan-2-yl)carbamoyl)-2-azaspiro[4.5]decane-2-carboxylate]	45 mL/min/kg	38 min	85 nM	< 100 nM	49 nM	230000 nM	
CC(C)C(=O)OC[C@H]1O[C@@H](n2ccc(NO)nc2=O)[C@H](O)[C@@H]1O [molnupiravir]							50%
